Row | melting point [°C] | SMILES
1 | 255 | NC(=O)CCC(=O)N[C@H]1CC[C@H](CCN2CCN(c3ccccc3F)CC2)CC1 [Example 186, N-(4-{2-[4-(2-Fluorophenyl)piperazin-1-yl]ethyl}cyclohexyl)succinamide]
2 | 185 | O=C(CC(F)(F)F)N[C@H]1CC[C@H](CCN2CCN(c3ccccc3)CC2)CC1 [Example 188, 3,3,3-Trifluoro-N-{4-[2-(4-phenylpiperazin-1-yl)ethyl]cyclohexyl}propanamide]
3 | 203 to 204 | N#CCC(=O)N[C@H]1CC[C@H](CCN2CCN(c3cc(C(F)(F)F)ccc3Cl)CC2)CC1 [Example 189, N-(4-{2-[4-(2-Chloro-5-trifluoromethylphenyl)piperazin-1-yl]ethyl}cyclohexyl)-2-cyanoacetamide]
4 | 237 to 240 | Cc1ccc(Cl)cc1N1CCN(CC[C@H]2CC[C@H](NC(=O)CCC(N)=O)CC2)CC1 [Example 190, N-(4-{2-[4-(5-Chloro-2-methylphenyl)piperazin-1-yl]ethyl}cyclohexyl)succinamide]
5 | 159 | CC(=O)CCC(=O)N[C@H]1CC[C@H](CCN2CCN(c3cccc(C(F)(F)F)c3)CC2)CC1 [Example 191, 4-Oxo-pentanoic acid (4-{2-[4-(3-trifluoromethylphenyl)piperazin-1-yl]ethyl}cyclohexyl)amide]
6 | 178 | Cc1ccc(F)c(N2CCN(CC[C@H]3CC[C@H](NC(=O)CC#N)CC3)CC2)c1 [Example 192, 2-Cyano-N-(4-{2-[4-(2-fluoro-5-methylphenyl)piperazin-1-yl]ethyl}cyclohexyl)acetamide]
7 | 165 | COc1ccc(Cl)c(N2CCN(CC[C@H]3CC[C@H](NC(=O)CC#N)CC3)CC2)c1 [Example 193, N-(4-{2-[4-(2-Chloro-5-methoxyphenyl)piperazin-1-yl]ethyl}cyclohexyl)-2-cyanoacetamide]
8 | 146 | CSc1ccccc1N1CCN(CC[C@H]2CC[C@H](NC(=O)CC#N)CC2)CC1 [Example 194, 2-Cyano-N-(4-{2-[4-(2-methylsulfanylphenyl)piperazin-1-yl]ethyl}cyclohexyl)acetamide]
9 | 178 | COc1ccc(C)cc1N1CCN(CC[C@H]2CC[C@H](NC(=O)CC#N)CC2)CC1 [Example 195, 2-Cyano-N-(4-{2-[4-(2-methoxy-5-methylphenyl)piperazin-1-yl]ethyl}cyclohexyl)acetamide]
10 | 159 | Cc1ccc(F)cc1N1CCN(CC[C@H]2CC[C@H](NC(=O)CC#N)CC2)CC1 [Example 196, 2-Cyano-N-(4-{2-[4-(5-fluoro-2-methylphenyl)piperazin-1-yl]ethyl}cyclohexyl)acetamide]
11 | 163 | COc1ccc(C(C)(C)C)cc1N1CCN(CC[C@H]2CC[C@H](NC(=O)CC#N)CC2)CC1 [Example 197, N-(4-{2-[4-(5-tert-Butyl-2-methoxyphenyl)piperazin-1-yl]ethyl}cyclohexyl)-2-cyanoacetamide]
12 | 178 to 180 | COc1ccc(C)c(N2CCN(CC[C@H]3CC[C@H](NC(=O)CC#N)CC3)CC2)c1 [Example 198, 2-Cyano-N-(4-{2-[4-(5-methoxy-2-methylphenyl)piperazin-1-yl]ethyl}cyclohexyl)acetamide]
13 | 164 | N#CCC(=O)N[C@H]1CC[C@H](CCN2CCC(c3cc(C(F)(F)F)cc(C(F)(F)F)c3)CC2)CC1 [Example 200, N-(4-{2-[4-(3,5-Bis-trifluoro-methylphenyl)piperidin-1-yl]ethyl}cyclohexyl)-2-cyanoacetamide]
14 | 158 | CC(=O)CCCC(=O)N[C@H]1CC[C@H](CCN2CCN(c3cccc(C(F)(F)F)c3)CC2)CC1 [Example 202, 5-Oxo-hexanoic acid (4-{2-[4-(3-trifluoromethylphenyl)piperazin-1-yl]ethyl}cyclohexyl)amide]
15 | 170 | N#CCCCC(=O)N[C@H]1CC[C@H](CCN2CCN(c3ccccc3F)CC2)CC1 [Example 204, 4-Cyano-N-(4-{2-[4-(2-fluorophenyl)piperazin-1-yl]ethyl}cyclohexyl)butanamide]
16 | 186 | N#CCCCC(=O)N[C@H]1CC[C@H](CCN2CCN(c3cccc(Cl)c3F)CC2)CC1 [Example 205, N-(4-{2-[4-(3-Chloro-2-fluorophenyl)piperazin-1-yl]ethyl}cyclohexyl)-4-cyanobutanamide]
17 | 133 to 134 | N#CCCCC(=O)N[C@H]1CC[C@H](CCN2CCN(c3cccc(OC(F)(F)F)c3)CC2)CC1 [Example 206, 4-Cyano-N-(4-{2-[4-(3-trifluoromethoxyphenyl)piperazin-1-yl]ethyl}cyclohexyl)butanamide]
18 | 138 to 139 | N#CCCCC(=O)N[C@H]1CC[C@H](CCN2CCN(c3cc(C(F)(F)F)ccc3F)CC2)CC1 [Example 207, 4-Cyano-N-(4-{2-[4-(2-fluoro-5-trifluoromethylphenyl)piperazin-1-yl]ethyl}cyclohexyl)butanamide]
19 | 187 to 189 | N#CCC(=O)N[C@H]1CC[C@H](CCN2CCN(c3cccc(F)c3C#N)CC2)CC1 [Example 208]

Row | melting point [°C] | SMILES
20 | 148 | N#CCCCC(=O)N[C@H]1CC[C@H](CCN2CCN(c3cccc4c3CCCC4)CC2)CC1 [Example 209, 4-Cyano-N-(4-{2-[4-(5,6,7,8-tetrahydronaphthalen-1-yl)piperazin-1-yl]ethyl}cyclohexyl)butanamide]
21 | 192 | N#CCCCC(=O)N[C@H]1CC[C@H](CCN2CCN(c3cccc(Cl)c3Cl)CC2)CC1 [Example 210, 4-Cyano-N-(4-{2-[4-(2,3-dichlorophenyl)piperazin-1-yl]ethyl}cyclohexyl)butanamide]
22 | 200 | N#CCC(=O)N[C@H]1CC[C@H](CCN2CCN(c3ccc4c(c3)CCCC4)CC2)CC1 [Example 211, 2-Cyano-N-(4-{2-[4-(5,6,7,8-tetrahydronaphthalen-2-yl)piperazin-1-yl]ethyl}cyclohexyl)acetamide]
23 | 210 | N#CCC(=O)N[C@H]1CC[C@H](CCN2CCN(c3ccc4c(c3)CCC4)CC2)CC1 [Example 212, 2-Cyano-N-{4-[2-(4-indan-5-ylpiperazin-1-yl)ethyl]cyclohexyl}acetamide]
24 | 158 to 159 | N#CCCC(=O)N[C@H]1CC[C@H](CCN2CCN(c3cc(C(F)(F)F)cc(C(F)(F)F)c3)CC2)CC1 [Example 213, N-(4-{2-[4-(3,5-Bistrifluoromethylphenyl)piperazin-1-yl]ethyl}cyclohexyl)-3-cyanopropanamide]
25 | 153 | N#CCCC(=O)N[C@H]1CC[C@H](CCN2CCN(c3cccc(C(F)(F)F)c3F)CC2)CC1 [Example 214, 3-Cyano-N-(4-{2-[4-(2-fluoro-3-trifluoromethylphenyl)piperazin-1-yl]ethyl}cyclohexyl)propanamide trans/cis 95/5]
26 | 122 | COc1c(Cl)cccc1N1CCN(CC[C@H]2CC[C@H](NC(=O)CC#N)CC2)CC1 [Example 215, N-(4-{2-[4-(3-Chloro-2-methoxyphenyl)piperazin-1-yl]ethyl}cyclohexyl)-2-cyanoacetamide]
27 | 168 | N#CCC(=O)N[C@H]1CC[C@H](CCN2CCN(c3cccc(Cc4ccccc4)c3)CC2)CC1 [Example 216, N-(4-{2-[4-(3-Benzylphenyl)-piperazin-1-yl]ethyl}cyclohexyl)-2-cyanoacetamide]
28 | 170 | CCOC(=O)Nc1cccc(N2CCN(CC[C@H]3CC[C@H](NC(=O)CC#N)CC3)CC2)c1 [Example 217, [3-(4-{2-[4-(2-Cyanoacetylamino)cyclohexyl]ethyl}piperazin-1-yl)phenyl] carbamic acid ethyl ester]
29 | 129 | N#CCC(=O)N[C@H]1CC[C@H](CCN2CCC(c3cccc(C(F)(F)F)c3)CC2)CC1 [Example 218, 2-Cyano-N-(4-{2-[4-(3-trifluoromethylphenyl)piperidin-1-yl]ethyl}cyclohexyl)acetamide]
30 | 166 | Cc1cccc(N2CCN(CC[C@H]3CC[C@H](NC(=O)CC#N)CC3)CC2)c1C [Example 219, 2-Cyano-N-(4-{2-[4-(2,3-dimethylphenyl)piperazin-1-yl]ethyl}cyclohexyl)acetamide]
31 | 150 | Cc1ccccc1N1CCN(CC[C@H]2CC[C@H](NC(=O)CC#N)CC2)CC1 [Example 220, 2-Cyano-N-{4-[2-(4-o-tolylpiperazin-1-yl)ethyl]cyclohexyl}acetamide]
32 | 171 to 173 | COc1ccc(OC)c(N2CCN(CC[C@H]3CC[C@H](NC(=O)CC#N)CC3)CC2)c1 [Example 221, 2-Cyano-N-(4-{2-[4-(2,5-dimethoxyphenyl)piperazin-1-yl]ethyl}cyclohexyl)acetamide]
33 | 172 to 174 | CC(=O)CCC(=O)N[C@H]1CC[C@H](CCN2CCN(c3cc(C(F)(F)F)cc(C(F)(F)F)c3)CC2)CC1 [Example 222, 4-Oxopentanoic acid (4-{2-[4-(3,5-bis-trifluoromethylphenyl)piperazin-1-yl]ethyl}cyclohexyl)amide]
34 | 128 | CN(C)CCCC(=O)N[C@H]1CC[C@H](CCN2CCN(c3cccc(C(F)(F)F)c3)CC2)CC1 [Example 223, 4-Dimethylamino-N-(4-{2-[4-(3-trifluoromethylphenyl)piperazin-1-yl]ethyl}cyclohexyl)butanamide]
35 | 119 | O=C(COc1ccc(F)cc1)N[C@H]1CC[C@H](CCN2CCN(c3cccc(C(F)(F)F)c3)CC2)CC1 [Example 224, 2-(4-Fluorophenoxy)-N-(4-{2-[4-(3-trifluoromethylphenyl)-piperazin-1-yl]ethyl}cyclohexyl)-acetamide]
36 | 198 | N#CCC(=O)N[C@H]1CC[C@H](CCN2CCN(c3cc(F)ccc3F)CC2)CC1 [Example 226, 2-Cyano-N-(4-{2-[4-(2,5-difluorophenyl)piperazin-1-yl]ethyl}cyclohexyl)acetamide]
37 | 174 | Cc1ccc(Cl)c(N2CCN(CC[C@H]3CC[C@H](NC(=O)CC#N)CC3)CC2)c1 [Example 227, N-(4-{2-[4-(2-Chloro-5-methylphenyl)piperazin-1-yl]ethyl}cyclohexyl)-2-cyanoacetamide]
38 | 182 to 184 | N#CCC(=O)N[C@H]1CC[C@H](CCN2CCN(c3cc(Cl)ccc3Cl)CC2)CC1 [Example 228, 2-Cyano-N-(4-{2-[4-(2,5-dichlorophenyl)piperazin-1-yl]ethyl}cyclohexyl)acetamide]

— US8802678B2, “Carbonylated (aza) cyclohexanes as dopamine D3 receptor ligands” (Bioprojet, priority 2006, dated 2014)
